According to ChEMBL document CHEMBL1201862, “PubChem BioAssay data set” (2004):
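Assay format: 96-well plates, 48-hour exposure. GI50 = concentration required for 50% inhibition of growth.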 Active and inactive are the calls of the source. No stated cut-off is given here; in the data, active = GI50 up to about 1.1 µM and inactive = higher.

Tests used:
Experiment in all cases: DTP human tumour cell line panel, 48 h
RPMI-8226 = tested on: RPMI-8226
IGROV-1 = tested on: IGROV-1
OVCAR-5 = tested on: OVCAR-5
OVCAR-3 = tested on: OVCAR-3
SN12C = tested on: SN12C
NCI/ADR-RES = tested on: NCI/ADR-RES
SW-620 = tested on: SW-620
PC-3 = tested on: PC-3
LOX IMVI = tested on: LOX IMVI
OVCAR-8 = tested on: OVCAR-8
SF-539 = tested on: SF-539
HCT-116 = tested on: HCT-116
HCC 2998 = tested on: HCC 2998
M14 = tested on: M14
UACC-62 = tested on: UACC-62
OVCAR-4 = tested on: OVCAR-4
CAKI-1 = tested on: CAKI-1
Malme-3M = tested on: Malme-3M
MDA-N = tested on: MDA-N

Measured: GI50

O=C1NCCCc2nonc21
inactive: RPMI-8226 > 100 µM | IGROV-1 > 100 µM | OVCAR-5 > 100 µM | OVCAR-3 > 100 µM | SN12C > 100 µM | NCI/ADR-RES > 100 µM | SW-620 > 100 µM | PC-3 > 100 µM | LOX IMVI > 100 µM | OVCAR-8 > 100 µM | SF-539 > 100 µM | HCT-116 > 100 µM | HCC 2998 > 100 µM | M14 > 100 µM | UACC-62 > 100 µM | OVCAR-4 > 100 µM | CAKI-1 > 100 µM | Malme-3M > 100 µM | MDA-N > 100 µM

Cc1ccc(NC(=O)C(=O)Cc2nc3ccccc3o2)c(C)c1
inactive: RPMI-8226 > 100 µM | IGROV-1 > 100 µM | OVCAR-5 > 100 µM | OVCAR-3 > 100 µM | SN12C > 100 µM | SW-620 > 100 µM | LOX IMVI > 100 µM | OVCAR-8 > 100 µM | SF-539 > 100 µM | HCT-116 > 100 µM | HCC 2998 > 100 µM | M14 > 100 µM | UACC-62 > 100 µM | OVCAR-4 > 100 µM | CAKI-1 > 100 µM | Malme-3M > 100 µM

CNC(=O)CN(CC(N)=O)C(=O)NC
inactive: RPMI-8226 > 100 µM | IGROV-1 > 100 µM | OVCAR-5 > 100 µM | OVCAR-3 > 100 µM | SW-620 > 100 µM | LOX IMVI > 100 µM | OVCAR-8 > 100 µM | SF-539 > 100 µM | HCC 2998 > 100 µM | M14 > 100 µM | UACC-62 > 100 µM | OVCAR-4 > 100 µM | CAKI-1 > 100 µM | Malme-3M > 100 µM

O=C1CCC2CCc3cccc4oc1c2c34 (centres undefined)
inactive: RPMI-8226 > 100 µM | IGROV-1 > 100 µM | OVCAR-3 > 100 µM | SN12C > 100 µM | SW-620 > 100 µM | LOX IMVI > 100 µM | OVCAR-8 > 100 µM | SF-539 > 100 µM | HCT-116 > 100 µM | HCC 2998 > 100 µM | M14 > 100 µM | UACC-62 > 100 µM | OVCAR-4 > 100 µM | CAKI-1 > 100 µM

N#Cc1ccc(/C=N/NC(=O)CSCC(=O)N/N=C/c2ccc(C#N)cc2)cc1
inactive: RPMI-8226 > 100 µM | IGROV-1 > 100 µM | OVCAR-5 > 100 µM | OVCAR-3 > 100 µM | SN12C > 100 µM | NCI/ADR-RES > 100 µM | SW-620 > 100 µM | PC-3 > 100 µM | OVCAR-8 53.1 µM | SF-539 > 100 µM | HCT-116 > 100 µM | HCC 2998 > 100 µM | M14 > 100 µM | UACC-62 > 100 µM | OVCAR-4 > 100 µM | CAKI-1 > 100 µM | Malme-3M > 100 µM

C=C1C(C(=O)O)C1C(=O)O (centres undefined)
inactive: RPMI-8226 > 100 µM | IGROV-1 > 100 µM | OVCAR-5 > 100 µM | SN12C > 100 µM | SW-620 > 100 µM | LOX IMVI > 100 µM | OVCAR-8 > 100 µM | SF-539 > 100 µM | HCT-116 > 100 µM | HCC 2998 > 100 µM | M14 > 100 µM | UACC-62 > 100 µM | OVCAR-4 > 100 µM | CAKI-1 > 100 µM | Malme-3M > 100 µM

O=C(CN(c1ccccc1)c1ccccc1)n1nnc2ccccc21
inactive: RPMI-8226 34.8 µM | IGROV-1 52.4 µM | OVCAR-5 > 100 µM | OVCAR-3 44.6 µM | SN12C 53 µM | SW-620 30 µM | LOX IMVI 24.2 µM | OVCAR-8 39.3 µM | SF-539 24.4 µM | HCT-116 24.3 µM | HCC 2998 49.8 µM | M14 52.8 µM | UACC-62 41.3 µM | CAKI-1 53 µM | Malme-3M 46.3 µM

O=C(O)CCSC(=O)Nc1cccc([N+](=O)[O-])c1
inactive: RPMI-8226 > 100 µM | IGROV-1 72.6 µM | OVCAR-3 > 100 µM | SN12C 94.6 µM | SW-620 92.9 µM | LOX IMVI 66.7 µM | OVCAR-8 > 100 µM | SF-539 > 100 µM | HCT-116 > 100 µM | HCC 2998 > 100 µM | M14 > 100 µM | OVCAR-4 60.8 µM | CAKI-1 71.1 µM

CC(C)(C)[Si](C)(C)OC1/C(=C/C#N)C(n2ccc(=O)[nH]c2=O)OC1CO (centres undefined)
inactive: OVCAR-5 > 100 µM | OVCAR-3 > 100 µM | NCI/ADR-RES > 100 µM | SW-620 > 100 µM | PC-3 > 100 µM | OVCAR-8 > 100 µM | SF-539 > 100 µM | HCT-116 > 100 µM | M14 > 100 µM | UACC-62 > 100 µM | OVCAR-4 > 100 µM | CAKI-1 > 100 µM | Malme-3M > 100 µM | MDA-N > 100 µM

COC(=O)C(CCCCCCCC(C(=O)OC)C1=Nc2nnc(N)n2C1=O)C1=Nc2nnc(N)n2C1=O (centres undefined)
inactive: RPMI-8226 4.07 µM | IGROV-1 > 100 µM | OVCAR-5 > 100 µM | OVCAR-3 > 100 µM | SN12C > 100 µM | SW-620 > 100 µM | LOX IMVI > 100 µM | OVCAR-8 94.8 µM | SF-539 84.3 µM | HCT-116 > 100 µM | HCC 2998 > 100 µM | M14 > 100 µM | UACC-62 > 100 µM | OVCAR-4 > 100 µM | CAKI-1 11.2 µM | Malme-3M > 100 µM

CSc1ncnc2c1CCN2
inactive: RPMI-8226 > 10 µM | IGROV-1 > 10 µM | OVCAR-5 > 10 µM | OVCAR-3 2.87 µM | SN12C > 100 µM | NCI/ADR-RES > 10 µM | SW-620 7.96 µM | PC-3 > 10 µM | LOX IMVI 6.34 µM | OVCAR-8 > 10 µM | HCT-116 6.07 µM | HCC 2998 > 10 µM | M14 > 10 µM | UACC-62 3.81 µM | OVCAR-4 > 10 µM | CAKI-1 > 10 µM | Malme-3M 6.62 µM | MDA-N 3.4 µM

CCOC(=O)C(NC(=O)c1nc[nH]c1[N+](=O)[O-])C(C)C (centres undefined)
inactive: RPMI-8226 72.6 µM | IGROV-1 > 100 µM | OVCAR-3 > 100 µM | SN12C > 100 µM | SW-620 > 100 µM | LOX IMVI > 100 µM | OVCAR-8 84.9 µM | SF-539 > 100 µM | HCT-116 > 100 µM | HCC 2998 66.4 µM | M14 > 100 µM | UACC-62 > 100 µM | OVCAR-4 > 100 µM | CAKI-1 > 100 µM | Malme-3M > 100 µM

O=C(Nc1ccc(Cl)cc1)c1cccc([N+](=O)[O-])c1O
inactive: RPMI-8226 1.6 µM | IGROV-1 3.03 µM | OVCAR-5 12 µM | OVCAR-3 1.81 µM | SN12C 4.09 µM | SW-620 4.81 µM | LOX IMVI 3.74 µM | OVCAR-8 4.39 µM | SF-539 4.18 µM | HCT-116 3.94 µM | HCC 2998 1.99 µM | M14 3.63 µM | UACC-62 1.85 µM | OVCAR-4 4.07 µM | CAKI-1 3.19 µM | Malme-3M 1.37 µM

COc1ccc(C(=O)O/N=C2/CCCCC2CN(C)C)cc1 (centres undefined)
inactive: RPMI-8226 > 100 µM | IGROV-1 > 100 µM | OVCAR-5 > 100 µM | OVCAR-3 > 100 µM | SN12C > 100 µM | SW-620 > 100 µM | LOX IMVI > 100 µM | OVCAR-8 > 100 µM | SF-539 > 100 µM | HCT-116 > 100 µM | HCC 2998 > 100 µM | M14 > 100 µM | UACC-62 > 100 µM | OVCAR-4 > 100 µM | CAKI-1 > 100 µM | Malme-3M > 100 µM

COC(=O)C12C3C4C5(C(=O)OC)C(C1C35C(=O)N(C(C)C)C(C)C)C42C(=O)N(C(C)C)C(C)C (centres undefined)
inactive: RPMI-8226 > 36.3 µM | IGROV-1 > 50 µM | OVCAR-5 > 50 µM | OVCAR-3 > 50 µM | SN12C > 50 µM | SW-620 > 25.5 µM | LOX IMVI > 27.1 µM | OVCAR-8 > 50 µM | SF-539 > 50 µM | HCT-116 14.7 µM | HCC 2998 > 50 µM | M14 > 50 µM | UACC-62 > 50 µM | OVCAR-4 > 35.6 µM | CAKI-1 > 50 µM | Malme-3M > 50 µM

COc1cc2c(cc1O)[C@H](C)C(c1ccccc1OC)O2 (some centres undefined)
inactive: RPMI-8226 2.64 µM | IGROV-1 5.24 µM | OVCAR-5 75.2 µM | OVCAR-3 6.53 µM | SW-620 3.27 µM | LOX IMVI 4.67 µM | OVCAR-8 10.3 µM | SF-539 5.11 µM | HCT-116 3.86 µM | HCC 2998 12.1 µM | M14 3.45 µM | UACC-62 3.33 µM | OVCAR-4 8.32 µM | CAKI-1 5.98 µM | Malme-3M 4.14 µM

CC(C)C1NC(=O)[C@H](C)OC(=O)[C@@H](C(C)C)NC(=O)[C@@H](C)OC(=O)C(C(C)C)NC(=O)[C@H](C)OC1=O (some centres undefined)
inactive: RPMI-8226 > 47.9 µM | IGROV-1 > 100 µM | OVCAR-5 > 100 µM | OVCAR-3 > 100 µM | SN12C > 100 µM | SW-620 > 28.1 µM | LOX IMVI > 49.3 µM | OVCAR-8 > 100 µM | SF-539 > 50.9 µM | HCT-116 > 86.5 µM | HCC 2998 > 100 µM | M14 > 95.1 µM | UACC-62 > 100 µM | OVCAR-4 > 67.1 µM | CAKI-1 > 100 µM | Malme-3M > 100 µM

CCCN(CCC)C(=O)Cc1c2n(c3ccccc13)CCCc1ccccc1-2
inactive: RPMI-8226 14.4 µM | OVCAR-3 16 µM | SN12C 15.5 µM | SW-620 16.6 µM | LOX IMVI 15.4 µM | OVCAR-8 16.3 µM | SF-539 14.9 µM | HCT-116 13.5 µM | HCC 2998 13.2 µM | M14 13.5 µM | UACC-62 11 µM | OVCAR-4 13.3 µM | CAKI-1 14.8 µM | Malme-3M 13.9 µM
